How the values were obtained:
[1] = ABTS radical scavenging activity assessed as trolox equivalent antioxidant capacity; format: physicochemical
[2] = DPPH radical scavenging activity assessed as trolox equivalent antioxidant capacity; format: functional
[3] = Antioxidant activity assessed as ABTS radical scavenging activity; format: functional

| Compound | Activity [1] [MU] | Activity [2] [MU] | Activity [3] [mg/L] |
| --- | --- | --- | --- |
| O=c1c(-c2ccc(O)cc2)coc2cc(O)ccc12 [DAIDZEIN] | 0.101 | 0.033 |  |
| C[C@@H]1O[C@@H](OC[C@H]2O[C@@H](Oc3c(-c4ccc(O)c(O)c4)oc4cc(O)cc(O)c4c3=O)[C@H](O)[C@@H](O)[C@@H]2O)[C@H](O)[C@H](O)[C@H]1O [RUTIN] | 2.02 | 2.33 |  |
| Oc1cc(O)c2c(c1)O[C@H](c1ccc(O)c(O)c1)[C@H](O)[C@H]2c1c(O)cc(O)c2c1O[C@H](c1ccc(O)c(O)c1)[C@@H](O)C2 [PROCYANIDIN B1] | 6.14 | 5.94 |  |
| Oc1cc(O)c2c(c1)O[C@H](c1ccc(O)c(O)c1)[C@H](O)C2 [(-)-EPICATECHIN] | 3.08 | 3.18 |  |
| O=c1cc(-c2ccccc2)oc2cc(O)c(O)c(O)c12 [BAICALEIN] | 2.56 | 2.74 |  |
| Oc1cc(O)c2c(c1)O[C@H](c1cc(O)c(O)c(O)c1)[C@H](O)C2 [EPIGALLOCATECHIN] | 3.71 | 3.56 |  |
| O=c1cc(-c2ccc(O)cc2)oc2c([C@@H]3O[C@H](CO)[C@@H](O)[C@H](O)[C@H]3O)c(O)cc(O)c12 [VITEXIN] | 0.216 | 0.205 |  |
| O=c1c(-c2ccc(O)cc2)coc2cc(O[C@@H]3O[C@H](CO)[C@@H](O)[C@H](O)[C@H]3O)cc(O)c12 [GENISTIN] | 0.077 | 0.026 |  |
| Oc1cc(O)c2c(c1)OC(c1ccc(O)c(O)c1)C(O)C2 (stereo not given) |  | 2.95 |  |
| C[C@@H]1O[C@@H](Oc2cc(O)c3c(=O)c(O[C@@H]4O[C@H](CO)[C@@H](O)[C@H](O)[C@H]4O)c(-c4ccc(O)c(O)c4)oc3c2)[C@@H](O)[C@H](O)[C@@H]1O | 1.56 | 1.63 |  |
| COc1cc2c(=O)c(-c3ccc(O)cc3)coc2cc1O [GLYCITEIN] | 0.097 | 0.02 |  |
| O=C(O[C@@H]1Cc2c(O)cc(O)cc2O[C@@H]1c1ccc(O)c(O)c1)c1cc(O)c(O)c(O)c1 [EPICATECHIN GALLATE] | 5.29 | 5.26 |  |
| O=c1c(O)c(-c2ccc(O)cc2)oc2cc(O)cc(O)c12 [KAEMPFEROL] | 1.59 | 1.32 |  |
| O=C1O[C@H]([C@@H](O)CO)C(O)=C1O |  |  | 100 |
| O=C1C[C@@H](c2ccc(O)cc2)Oc2cc(O)cc(O)c21 [NARINGENIN] | 0.217 | 0.136 |  |
| O=c1cc(-c2ccc(O)cc2)oc2cc(O)cc(O)c12 [APIGENIN] | 0.086 | 0.041 |  |
| O=c1c(O)c(-c2ccc(O)c(O)c2)oc2cc(O)cc(O)c12 [QUERCETIN] | 4.42 | 4.6 |  |
| O=c1c(O)c(-c2ccccc2)oc2ccccc12 [FLAVONOL] | 0.707 | 0.484 |  |
| O=C(O[C@@H]1Cc2c(O)cc(O)cc2O[C@@H]1c1cc(O)c(O)c(O)c1)c1cc(O)c(O)c(O)c1 [EPIGALOCATECHIN GALLATE] | 5.95 | 6.08 |  |
| O=c1c(O)c(-c2ccccc2)oc2cc(O)cc(O)c12 [GALANGIN] | 1.12 | 0.705 |  |

| Compound | Activity [1] [MU] | Activity [2] [MU] | Activity [3] [mg/L] |
| --- | --- | --- | --- |
| COc1ccc([C@@H]2CC(=O)c3c(O)cc(O[C@@H]4O[C@H](CO[C@@H]5O[C@@H](C)[C@H](O)[C@@H](O)[C@H]5O)[C@@H](O)[C@H](O)[C@H]4O)cc3O2)cc1O [HESPERIDIN] | 0.104 | 0.075 |  |
| O=C(O)[C@H]1O[C@@H](Oc2cc3oc(-c4ccccc4)cc(=O)c3c(O)c2O)[C@H](O)[C@@H](O)[C@@H]1O [BAICALIN] | 1.55 | 1.79 |  |
| O=C(O[C@H]1Cc2c(O)cc(O)cc2O[C@@H]1c1ccc(O)c(O)c1)c1cc(O)c(O)c(O)c1 [CATECHIN GALLATE] | 5.25 | 5.56 |  |
| O=C(/C=C/c1ccc(O)c(O)c1)c1ccc(O)cc1O [BUTEIN] | 2.42 | 2.27 |  |
| COc1ccc([C@@H]2CC(=O)c3c(O)cc(O)cc3O2)cc1O [HESPERETIN] | 0.403 | 0.268 |  |
| O=c1cc(-c2ccc(O)c(O)c2)oc2cc(O)cc(O)c12 [LUTEOLIN] | 2.18 | 2.24 |  |
| O=c1c(-c2ccc(O)cc2)coc2cc(O[C@@H]3O[C@H](CO)[C@@H](O)[C@H](O)[C@H]3O)ccc12 [DAIDZIN] | 0.072 | 0.035 |  |
| C[C@@H]1O[C@@H](Oc2c(-c3ccc(O)c(O)c3)oc3cc(O)cc(O)c3c2=O)[C@H](O)[C@H](O)[C@H]1O [QUERCITRIN] | 2.18 | 2.57 |  |
| O=c1c(O)c(-c2ccc(O)cc2O)oc2cc(O)cc(O)c12 [MORIN] | 2.68 | 2.75 |  |
| O=c1c(-c2ccc(O)cc2)coc2cc(O)cc(O)c12 [GENISTEIN] | 0.123 | 0.095 |  |
| O=c1c(O)c(-c2cc(O)c(O)c(O)c2)oc2cc(O)cc(O)c12 [MYRICETIN] | 1.31 | 1.38 |  |
| Oc1cc(O)c2c(c1)O[C@H](c1ccc(O)c(O)c1)[C@@H](O)C2 [CATECHIN] | 3.04 |  |  |
| O=c1cc(-c2ccc(O)c(O)c2)oc2cc(O[C@@H]3O[C@H](CO)[C@@H](O)[C@H](O)[C@H]3O)cc(O)c12 [GALUTEOLIN] | 1.47 | 1.39 |  |
| O=c1cc(-c2ccc(O)cc2)oc2cc(O[C@@H]3O[C@H](CO)[C@@H](O)[C@H](O)[C@H]3O)cc(O)c12 [APIGETRIN] | 0.083 | 0.05 |  |
| O=C(CCc1ccc(O)cc1)c1c(O)cc(O)cc1O [PHLORETIN] | 1.79 | 1.24 |  |
| C[C@@H]1O[C@@H](O[C@H]2[C@H](Oc3cc(O)c4c(c3)O[C@H](c3ccc(O)cc3)CC4=O)O[C@H](CO)[C@@H](O)[C@@H]2O)[C@H](O)[C@H](O)[C@H]1O [NARINGIN] | 0.098 | 0.077 |  |
| O=c1cc(-c2ccccc2)oc2cc(O)cc(O)c12 [CHRYSIN] | 0.081 | 0.053 |  |
| Oc1cc(O)c2c(c1)O[C@H](c1ccc(O)c(O)c1)[C@H](O)[C@H]2c1c(O)cc(O)c2c1O[C@H](c1ccc(O)c(O)c1)[C@H](O)[C@H]2c1c(O)cc(O)c2c1O[C@H](c1ccc(O)c(O)c1)[C@H](O)C2 [PROCYANIDIN C1] | 8.29 | 8.79 |  |
| O=c1c(O[C@@H]2O[C@H](CO)[C@@H](O)[C@H](O)[C@H]2O)c(-c2ccc(O)c(O)c2)oc2cc(O)cc(O)c12 [ISOQUERCETIN] | 2.39 | 2.16 |  |
